One experiment has as its target Human PDE4A (Homo sapiens (Human), UniProt P27815). Briefly: PDE4A Scintillation Proximity Assay (SPA), inhibition of enzyme activity. Conditions: human recombinant enzyme, 1 μM cAMP substrate, 30 min at 25° C., geometric mean of 2-9 determinations unless otherwise indicated, read-out: Human PDE4A FL. The format is biochemical. Background: In a scintillation proximity assay essentially only radioactivity close to the scintillant gives light.

The next experiment has as its target Human PDE4D (Homo sapiens (Human), UniProt Q08499). The experiment is described as follows: PDE4D Scintillation Proximity Assay (SPA), inhibition of enzyme activity. The format is biochemical. The note with it: read-out: Human PDE4D FL.
[1] abbreviates: human recombinant enzyme, 1 μM cAMP substrate, 30 min at 25° C., geometric mean of 2-9 determinations unless otherwise indicated.

Where a name gives a salt, the structure may show the parent alone. Read-outs that look alike come from different tables or passages of the source. Where only a bound is given, the exact number is not on record here.

Sequence of Human PDE4A (P27815 other isoform, or with tags, fused parts or gaps): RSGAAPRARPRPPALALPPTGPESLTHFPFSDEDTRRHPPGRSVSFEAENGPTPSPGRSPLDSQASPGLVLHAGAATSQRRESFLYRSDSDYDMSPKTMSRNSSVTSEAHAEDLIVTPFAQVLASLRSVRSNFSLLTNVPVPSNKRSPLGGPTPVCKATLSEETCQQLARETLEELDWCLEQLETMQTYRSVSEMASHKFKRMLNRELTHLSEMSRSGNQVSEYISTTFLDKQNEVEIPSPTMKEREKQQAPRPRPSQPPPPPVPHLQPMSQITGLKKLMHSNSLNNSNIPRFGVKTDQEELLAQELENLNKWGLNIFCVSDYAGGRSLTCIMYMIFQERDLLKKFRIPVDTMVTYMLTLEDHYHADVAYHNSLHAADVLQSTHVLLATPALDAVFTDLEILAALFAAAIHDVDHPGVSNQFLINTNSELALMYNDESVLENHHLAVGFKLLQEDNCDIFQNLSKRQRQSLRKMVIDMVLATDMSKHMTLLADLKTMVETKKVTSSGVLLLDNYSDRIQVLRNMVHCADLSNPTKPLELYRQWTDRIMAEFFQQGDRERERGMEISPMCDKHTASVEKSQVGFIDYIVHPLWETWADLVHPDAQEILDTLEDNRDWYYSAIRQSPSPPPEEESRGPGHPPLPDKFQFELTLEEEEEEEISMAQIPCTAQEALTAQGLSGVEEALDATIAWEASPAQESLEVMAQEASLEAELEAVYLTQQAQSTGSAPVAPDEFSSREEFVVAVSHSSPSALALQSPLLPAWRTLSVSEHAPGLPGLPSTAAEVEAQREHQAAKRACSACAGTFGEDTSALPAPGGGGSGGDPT
Sequence of Human PDE4D (Q08499 186-808): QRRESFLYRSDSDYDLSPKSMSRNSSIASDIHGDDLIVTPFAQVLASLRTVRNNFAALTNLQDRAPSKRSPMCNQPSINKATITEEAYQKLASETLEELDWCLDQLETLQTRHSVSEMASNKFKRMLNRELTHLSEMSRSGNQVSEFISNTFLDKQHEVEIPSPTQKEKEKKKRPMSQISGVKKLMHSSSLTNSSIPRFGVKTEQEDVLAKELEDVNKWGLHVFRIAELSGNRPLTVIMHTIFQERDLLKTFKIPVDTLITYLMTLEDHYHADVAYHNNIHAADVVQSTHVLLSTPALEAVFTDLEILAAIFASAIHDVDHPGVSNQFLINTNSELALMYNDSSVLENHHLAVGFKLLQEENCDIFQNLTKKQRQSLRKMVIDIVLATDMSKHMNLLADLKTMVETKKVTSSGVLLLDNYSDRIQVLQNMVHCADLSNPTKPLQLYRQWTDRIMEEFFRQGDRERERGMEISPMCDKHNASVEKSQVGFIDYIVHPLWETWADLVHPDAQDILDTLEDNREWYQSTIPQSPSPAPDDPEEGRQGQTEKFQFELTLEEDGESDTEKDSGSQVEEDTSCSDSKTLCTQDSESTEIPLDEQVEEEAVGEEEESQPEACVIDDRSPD

Take `O=C(NC1CC1)c1nc2cccnn2c1-c1ccc2ncnn2c1` [Example 6, N-Cyclopropyl-3-([1,2,4]triazolo[1,5-a]pyridin-6-yl)imidazo[1,2-b]pyridazine-2-carboxamide]: the IC50 on Human PDE4A came out at 0.0644 µM.

As to `O=C(NC1CC1)c1nc2cccnn2c1-c1ccc(Cl)c(Cl)c1` [Example 11, N-cyclopropyl-3-(3,4-dichlorophenyl)imidazo[1,2-b]pyridazine-2-carboxamide], the IC50 at Human PDE4D (setting [1]) was 0.334 µM.

As for `O=C(c1nc2cccnn2c1-c1cncc(Cl)c1)N1CCC1` [Example 15, azetidin-1-yl[3-(5-chloropyridin-3-yl)imidazo[1,2-b]pyridazin-2-yl]methanone], the IC50 on Human PDE4A turned out to be 0.264 µM. `O=C(c1nc2cccnn2c1-c1ccc2ncnn2c1)N1CCC1` [Example 16, azetidin-1-yl[3-([1,2,4]triazolo[1,5-a]pyridin-6-yl)imidazo[1,2-b]pyridazin-2-yl]methanone]: on Human PDE4D (setting [1]), the IC50 was > 27.5 µM. Turning to `Cc1cc(-c2c(C(=O)NC3CC3)nc3cccnn23)c(F)cc1C#N` [Example 17, 3-(4-cyano-2-fluoro-5-methylphenyl)-N-cyclopropylimidazo[1,2-b]pyridazine-2-carboxamide], the IC50 on Human PDE4A was found to be 0.0899 µM. On the same count and under the same terms, for `Cc1cc(C#N)c(F)cc1-c1c(C(=O)NC2CC2)nc2cccnn12` [Example 19, 3-(4-cyano-5-fluoro-2-methylphenyl)-N-cyclopropylimidazo[1,2-b]pyridazine-2-carboxamide] the value was 0.0169 µM; for `CN(C(=O)c1nc2cccnn2c1-c1ccc(Cl)c(F)c1)C1CC1` [Example 21, 3-(4-chloro-3-fluorophenyl)-N-cyclopropyl-N-methylimidazo[1,2-b]pyridazine-2-carboxamide], 0.0537 µM; for `CCCNC(=O)c1nc2cccnn2c1-c1cc(F)cc(Cl)c1` [Example 34, 3-(3-chloro-5-fluorophenyl)-N-propylimidazo[1,2-b]pyridazine-2-carboxamide], 0.0295 µM. In the case of `O=C(NC1CC1)c1nc2cccnn2c1-c1cnc2ccoc2c1` [Example 38, N-cyclopropyl-3-(furo[3,2-b]pyridin-6-yl)imidazo[1,2-b]pyridazine-2-carboxamide], the IC50 at Human PDE4D (setting [1]) was determined as 11.2 µM.

With `Cc1ccc(-c2c(C(=O)NC3CC3)nc3cccnn23)cc1F` [Example 41, N-cyclopropyl-3-(3-fluoro-4-methylphenyl)imidazo[1,2-b]pyridazine-2-carboxamide], at Human PDE4A, the IC50 turned out to be 0.00313 µM. For the molecule `O=C(c1nc2cccnn2c1-c1ccnc(C(F)(F)F)c1)N1CCC1` [Example 43, azetidin-1-yl{3-[2-(trifluoromethyl)pyridin-4-yl]imidazo[1,2-b]pyridazin-2-yl}methanone], at Human PDE4D (setting [1]), the IC50 was > 16.9 µM. On the same count and under the same terms, as for `O=C(NC1CC1(F)F)c1nc2cccnn2c1-c1ccc(Cl)c(F)c1` (stereo not drawn) [Example 44, 3-(4-chloro-3-fluorophenyl)-N-(2,2-difluorocyclopropyl)imidazo[1,2-b]pyridazine-2-carboxamide], the figure is 0.32 µM. For the molecule `O=C(N[C@@H]1C[C@@H]1F)c1nc2cccnn2c1-c1ccc(Cl)c(F)c1` [Example 45, 3-(4-chloro-3-fluorophenyl)-N-[(1R,2S)-2-fluorocyclopropyl]imidazo[1,2-b]pyridazine-2-carboxamide], the IC50 at Human PDE4A came to 0.00291 µM.

For the molecule `Cc1ccc(-c2c(C(=O)N3CCC3)nc3cccnn23)cc1Cl` [Example 49, azetidin-1-yl[3-(3-chloro-4-methylphenyl)imidazo[1,2-b]pyridazin-2-yl]methanone], the IC50 on Human PDE4A is 0.00416 µM. Consider `Cc1cc(-c2c(C(=O)N3CCC3)nc3cccnn23)ccc1Cl` [Example 51, azetidin-1-yl[3-(4-chloro-3-methylphenyl)imidazo[1,2-b]pyridazin-2-yl]methanone], for which the IC50 on Human PDE4D (setting [1]) was 2.81 µM.

Regarding `Cc1cc(Cl)ccc1-c1c(C(=O)N2CCC2)nc2cccnn12` [Example 56, azetidin-1-yl[3-(4-chloro-2-methylphenyl)imidazo[1,2-b]pyridazin-2-yl]methanone], at Human PDE4A, the IC50 was 0.0227 µM.

Turning to `O=C(NCCc1ccccc1O)c1nc2cccnn2c1-c1ccc(Cl)cc1` [Example 57, 3-(4-chlorophenyl)-N-[2-(2-hydroxyphenyl)ethyl]imidazo[1,2-b]pyridazine-2-carboxamide, formate salt], the IC50 at Human PDE4D was > 21.8 µM. On the same count and under the same terms, as for `Cc1cc(NC(=O)c2nc3cccnn3c2-c2ccc(Cl)cc2)no1` [Example 58, 3-(4-chlorophenyl)-N-(5-methyl-1,2-oxazol-3-yl)imidazo[1,2-b]pyridazine-2-carboxamide, trifluoroacetate salt], the figure is 0.831 µM; as for `Cn1ncc(NC(=O)c2nc3cccnn3c2-c2ccc(Cl)cc2)n1` [Example 59, 3-(4-chlorophenyl)-N-(2-methyl-2H-1,2,3-triazol-4-yl)imidazo[1,2-b]pyridazine-2-carboxamide, trifluoroacetate salt], 0.749 µM; as for `O=C(c1nc2cccnn2c1-c1ccc2nccnc2c1)N1CCC1` [Example 62, azetidin-1-yl[3-(quinoxalin-6-yl)imidazo[1,2-b]pyridazin-2-yl]methanone, formate salt], 11 µM. Still for that read-out and setting: as for `CC(=O)c1ccc(F)c(-c2c(C(=O)N3CCC3)nc3cccnn23)c1` [Example 63, 1-[3-[2-(azetidin-1-ylcarbonyl)imidazo[1,2-b]pyridazin-3-yl]-4-fluorophenyl]ethanone, formate salt], the figure is 0.394 µM. Regarding `Cc1ccc(Cl)cc1-c1c(C(=O)N2CCC2)nc2cccnn12` [Example 64, azetidin-1-yl[3-(5-chloro-2-methylphenyl)imidazo[1,2-b]pyridazin-2-yl]methanone], the IC50 on Human PDE4D (setting [1]) is 0.844 µM. On to `O=C(c1nc2cccnn2c1-c1ccc(Cl)cc1Cl)N1CCC1` [Example 65, azetidin-1-yl[3-(2,4-dichlorophenyl)imidazo[1,2-b]pyridazin-2-yl]methanone], for which the IC50 on Human PDE4D (setting [1]) worked out at 3.72 µM. For `Cc1ccc(-c2c(C(=O)N3CCC3)nc3cccnn23)c(C)c1Cl` [Example 66, azetidin-1-yl[3-(3-chloro-2,4-dimethylphenyl)imidazo[1,2-b]pyridazin-2-yl]methanone, formate salt], on Human PDE4D, the IC50 came to 3.39 µM. The same measure, in the same setting: as for `O=C(c1nc2cccnn2c1-c1ccc2c(c1)OCCO2)N1CCC1` [Example 67, azetidin-1-yl[3-(2,3-dihydro-1,4-benzodioxin-6-yl)imidazo[1,2-b]pyridazin-2-yl]methanone, formate salt], the figure is 2.26 µM. In the case of `O=C(N[C@@H]1C[C@@H]1F)c1nc2cccnn2c1-c1cncc(Cl)c1` [Example 69, 3-(5-chloropyridin-3-yl)-N-[(1R,2S)-2-fluorocyclopropyl]imidazo[1,2-b]pyridazine-2-carboxamide], the IC50 on Human PDE4D (setting [1]) is 3.33 µM. The same measure, in the same setting: as for `Cc1ccc(-c2c(C(=O)N[C@@H]3C[C@@H]3F)nc3cccnn23)c(F)c1` [Example 72, N-[(1R,2S)-2-fluorocyclopropyl]-3-(2-fluoro-4-methylphenyl)imidazo[1,2-b]pyridazine-2-carboxamide], the figure is 6.59 µM.

For `COc1ccc(-c2c(C(=O)N3CCC3)nc3cccnn23)c(F)c1` [Example 73, azetidin-1-yl[3-(2-fluoro-4-methoxyphenyl)imidazo[1,2-b]pyridazin-2-yl]methanone], the IC50 on Human PDE4A came to 0.165 µM. Consider `O=C(c1nc2cccnn2c1-c1cnc2ccnn2c1)N1CCC1` [Example 74, azetidin-1-yl[3-(pyrazolo[1,5-a]pyrimidin-6-yl)imidazo[1,2-b]pyridazin-2-yl]methanone], for which the IC50 at Human PDE4D (setting [1]) is 10.5 µM. On to `O=C(NC1CC1)c1nc2cccnn2c1-c1cnc2ccnn2c1` [Example 78, N-cyclopropyl-3-(pyrazolo[1,5-a]pyrimidin-6-yl)imidazo[1,2-b]pyridazine-2-carboxamide], for which the IC50 at Human PDE4D (setting [1]) came out at 6.49 µM. In the case of `Cc1ccc(C#N)cc1-c1c(C(=O)NC2CC2)nc2cccnn12` [Example 80, 3-(5-cyano-2-methylphenyl)-N-cyclopropylimidazo[1,2-b]pyridazine-2-carboxamide], the IC50 at Human PDE4D (setting [1]) was > 25.4 µM. In the case of `CCNC(=O)c1nc2cccnn2c1-c1ccc(Cl)c(F)c1` [Example 81, 3-(4-chloro-3-fluorophenyl)-N-ethylimidazo[1,2-b]pyridazine-2-carboxamide], the IC50 on Human PDE4A was found to be 0.00786 µM.

As for `O=C(Nc1cn[nH]c1)c1nc2cccnn2c1-c1ccc(Cl)c(F)c1` [Example 82, 3-(4-chloro-3-fluorophenyl)-N-(1H-pyrazol-4-yl)imidazo[1,2-b]pyridazine-2-carboxamide], the IC50 on Human PDE4A is 0.012 µM. The same measure, in the same setting: for `O=C(c1nc2cccnn2c1-c1cccc(Cl)c1)N1CCC1` [Example 84, azetidin-1-yl[3-(3-chlorophenyl)imidazo[1,2-b]pyridazin-2-yl]methanone] the value was 0.0167 µM; for `O=C(c1nc2cccnn2c1-c1ccc2c(c1)OC(F)(F)O2)N1CCC1` [Example 86, azetidin-1-yl[3-(2,2-difluoro-1,3-benzodioxol-5-yl)imidazo[1,2-b]pyridazin-2-yl]methanone], 0.00583 µM.

On to `O=C(c1nc2cccnn2c1-c1cc(F)c(Cl)cc1F)N1CCC1` [Example 91, azetidin-1-yl[3-(4-chloro-2,5-difluorophenyl)imidazo[1,2-b]pyridazin-2-yl]methanone], for which, at Human PDE4A, the IC50 turned out to be 0.0126 µM.

With `CCNC(=O)c1nc2cccnn2c1-c1ccc(Cl)cc1C` [Example 95, 3-(4-chloro-2-methylphenyl)-N-ethylimidazo[1,2-b]pyridazine-2-carboxamide], the IC50 on Human PDE4D (setting [1]) came to 14.8 µM. For the molecule `Cc1cc(Cl)c(F)cc1-c1c(C(=O)NC(C)C)nc2cccnn12` [Example 97, 3-(4-chloro-5-fluoro-2-methylphenyl)-N-(propan-2-yl)imidazo[1,2-b]pyridazine-2-carboxamide], the IC50 on Human PDE4A was 0.00548 µM. Consider `CC(C)NC(=O)c1nc2cccnn2c1-c1cc(F)c(Cl)cc1F` [Example 100, 3-(4-chloro-2,5-difluorophenyl)-N-(propan-2-yl)imidazo[1,2-b]pyridazine-2-carboxamide], for which, on Human PDE4D (setting [1]), the IC50 turned out to be 0.766 µM.

These data come from patent US9598421B2, “Imidazopyridazine compounds” (Pfizer Inc., priority 2014, dated 2017).
